The molecules below were run against human αvβ3 receptor (Homo sapiens, UniProt P05106+P06756) (assay: Bond displacement Vitronectin/Vitronectin Receptor (αvβ3), binding competition test Vn/VR). Details: human vitronectin coated plates, 3 hours at ambient temperature.
Description: 1—Study by the Products of the Invention of the Bond Displacement: Vitronectin/Vitronectin Receptor (αvβ3) 96-well MaxiSorp plates are coated overnight at 4° C., with 100 μl of human Vitronectin (cf Yatohgo et al. Cell., Structure and fraction 13: 281-292 (1988)) at 2 μg/ml, (Dilution in coating buffer).
The next day, the wells are emptied and the ligands (Vitronectin) are then fixed (see fixation buffer) for 1 hour at ambient temperature under gentle agitation.
The wells are washed six times (see washing buffer), then the following are added per well and in this order:
40 μl of incubation buffer, 10 μl of the dilution of the product to be tested, (the products are diluted in a 50/50 mixture of DMSO—H2O) 50 μl of human αvβ3 receptor (cf Pytela et al. Methods Enzymol (1987)144:475) (dilution in incubation buffer, adapted according to the batch of receptor and according to the ligand).
The ligand, the human αvβ3 receptor and the products to be studied are incubated for 3 hours at ambient temperature under gentle agitation.
The wells are again washed six times, then incubated for 2 hours at ambient temperature under gentle agitation, in the presence of 100 μl of 4B12-HRP antibody, anti-receptor coupled to a peroxidase (the 4B12-HRP antibody is diluted in incubation buffer. The dilution is adapted according to the batch of receptor).
The wells are then washed six times before measurement of ligand-receptor bond is carried out using a peroxidase developer kit (TMB Microwell Peroxidase Substrate System Kirkegaard: Ref. cat. 50-76-00).
This kit contains a flask A of substrate (3,3′,5,5′-tetramethylbenzidine at 0.4 g/l) and a flask B (H2O2 at 0.02% in Citrate/Citric acid buffer). Extemporaneously, one volume of A is mixture with one volume of B, then the reaction mixture is distributed at the rate of 100 μl/well. The enzymatic reaction develops in 12′ for Vitronectin/αvβ3, then its development is stopped by the addition of 100 μl of 1M phosphoric acid.
The optical density is measured at 450 nm. […]
coating buffer: 0.05 M Carbonate, NaOH pH 9.6 fixation buffer: PBS containing 0.5% of BSA (pH 7.4) washing buffer: PBS containing 0.05% of Tween 20 (pH 7.4)
Expression of the results:
The following curve is plotted: the percentage of bond of human vitronectin as a function of the logarithm of the concentration of each product tested.
For each product the IC50 is determined according to the following formula:
BO=Maximum bond in the absence of any product Bmin=Minimum bond in the presence of the highest concentration of product.

Point of comparison: O=C(O)CC(NC(=O)c1ccc2c(c1)CCC(=NNC1=NCCN1)C1=C2CCC1)c1ccc2c(c1)OCO2 (stereo not shown) [EX. 4], IC50 62 nM. Against it:
- O=C(O)CC(NC(=O)c1ccc2c(c1)CCC(=NNC1=NCCN1)C1=C2CCC1)c1cccnc1 (stereo not drawn) [EX. 3, beta-[[[4-[(4,5-dihydro-1H-imidazol-2-yl) hydrazono]-1,2,3,4,5,6-hexahydro-8-benz[e]azulenyl]-carbonyl]-amino]-3-pyridine-3-yl-propanoic acid] — 1.6-fold higher, 100 nM
- COc1c(C(=O)NCC(NC(=O)OCc2ccccc2)C(=O)O)cc2c(c1OC)C1=C(CCC1)C(=NNC1=NCCCN1)CC2 (racemic) [EX. 2, 3-[[[9,10-dimethoxy-1,2,3,4,5,6-hexahydro-4-[(1,4,5,6-tetrahydropyrimidin-2-yl)]-hydrazono]-8-benz[e]azulenyl]carbonyl]amino]-N-[(phenylmethoxy)carbonyl]-DL-alanine] — 3.3-fold lower, 19 nM
- COc1c(C(=O)NCC(NC(=O)OCc2ccccc2)C(=O)O)cc2c(c1OC)C1=C(CCC1)C(=NNC1=NCCN1)CC2 (racemic) [EX. 1, 3-[[[4-[(4,5-dihydro-1H-imidazol-2-yl)hydrazono]-9,10-dimethoxy-1,2,3,4,5,6-hexahydro-8-benz[e]azulenyl]-carbonyl]amino]—N-[(phenylmethoxy)carbonyl]-DL-alanine] — 3.9-fold lower, 16 nM
